Measured values taken from patent publication US8901105B2, “Prodrug derivatives of (E)-N-methyl-N-((3-M ethylbenzofuran-2-yl)methyl)-3-(7-oxo-5,6,7,8-tetrahydro-1,8-naphthyridin-3-yl)acrylamide” (Affinium Pharmaceuticals, Inc., priority 2012, dated 2014).
Converted amounts (≈) assume the structure as drawn. Structures can show the parent of a compound that is named as a salt. Where two headings read alike, the source gives them in different places.

Columns and labels:
Streptococcus pneumoniae = assay: Broth microdilution MIC; format: cell-based; conditions: ATCC49619, S. pneumoniae ATCC 49619, read-out: MIC
Protocol: (§1) Bacterial Isolates. Organisms tested in this study are listed in Table P. Clinical isolates consisted of 5 Staphylococcus aureus (MSSA), 3 Staphylococcus aureus (HA-MRSA), 2 Staphylococcus aureus (CA-MRSA), 2 Enterococcus faecalis (VSE), 2 Streptococcus pyogenes, and 2 Escherichia coli (susceptible to most antibiotics). S. aureus ATCC 29213, E. faecalis ATCC 29212, S. pneumoniae ATCC 49619, and E. coli ATCC 25922 were tested for the purposes of quality control.
(§2) Minimal Inhibitory Concentrations (MIC) values against the selected isolates were determined using the reference broth microdilution method according to the Clinical Laboratory Standards Institute (CLSI) guidelines.
(§3) The MIC was read and recorded as the lowest concentration of drug that inhibited visible growth of the organism.

Escherichia coli = assay: Broth microdilution MIC; format: cell-based; conditions: Escherichia coli, read-out: MIC
Protocol: as §1, §2, §3

Staphylococcus aureus = assay: Broth microdilution MIC; format: cell-based; conditions: Staphylococcus aureus, read-out: MIC
Protocol: as §1, §2, §3

Enterococcus faecalis = assay: Broth microdilution MIC; format: cell-based
Protocol: as §1, §2, §3

Streptococcus pyogenes = assay: Broth microdilution MIC; format: cell-based
Protocol: as §1, §2, §3

[1] = Aqueous solubility of salts at 25° C.; format: physicochemical; conditions: for solubility: thermodynamic from solid; for Comments (behaviour in solubility experiment): disodium salt
[2] = Photostability of solid salts; format: physicochemical
[3] = Solid-state stability (HPLC % area after storage); format: physicochemical; conditions: for Solid-state stability % Area: 4 weeks
Protocol: (§4) Various compounds disclosed herein have been placed on long-term solid-state stability protocol. The compounds were stored in glass vials closed with PTFE lined caps at 30° C./65% RH, 40° C./75% RH, 50° C. and 60° C. (ambient humidity). The results of the study after 4 weeks are shown in Table B1 and after 3 months in Table B2. Appearance and purity analysis were conducted using HPLC and XPRD. The HPLC analyses were conducted using standard equipment such as a Agilent HP1100 HPLC (Station ID: LZPES HPLC 04) with YMC-Pack ODS-AQ sub 3 μm, 150×4.6 mm

[4] = XRPD crystal form after storage; format: physicochemical; conditions: 4 weeks storage
Protocol: as §4, with “mm Samples were prepared for XRPD by sprinkling ˜20 mg onto a Si wafer zero background plate and pressing the material flat to ensure the surface is smooth and level. The samples were analyzed according the equipment parameters below.” for “mm”

[5] = ATCC29213, S. aureus ATCC 29213
[6] = ATCC29212, E. faecalis ATCC 29212, read-out: MIC
[7] = E. faecalis 4158, VSE, read-out: MIC
[8] = E. faecalis 4212, VSE, read-out: MIC
[9] = Streptococcus pyogenes, S. pyogenes 6179, read-out: MIC

MIC (Streptococcus pneumoniae)	MIC (Escherichia coli; ATCC25922, E. coli ATCC 25922)	MIC (Escherichia coli; E. coli 2214)	MIC (Escherichia coli; E. coli 5255)	MIC (Staphylococcus aureus; [5])	MIC (Staphylococcus aureus; MRSA, S. aureus 3083, HA-MRSA)	MIC (Staphylococcus aureus; MRSA, S. aureus 3086, HA-MRSA)	MIC (Staphylococcus aureus; MRSA, S. aureus 3265, HA-MRSA)	MIC (Staphylococcus aureus; MSSA, S. aureus 3104, MSSA)	MIC (Staphylococcus aureus; MSSA, S. aureus 3107, MSSA)	MIC (Staphylococcus aureus; MSSA, S. aureus 3245, MSSA)	MIC (Staphylococcus aureus; MSSA, S. aureus 3250, MSSA)	MIC (Staphylococcus aureus; MSSA, S. aureus 3856, MSSA)	MIC (Staphylococcus aureus; S. aureus 2168, CAMRSA)	MIC (Staphylococcus aureus; S. aureus 2294, CAMRSA)	MIC (Enterococcus faecalis; [6])	MIC (Enterococcus faecalis; [7])	MIC (Enterococcus faecalis; [8])	MIC (Streptococcus pyogenes; S. pyogenes 6528)	MIC (Streptococcus pyogenes; [9])	SMILES	other results
0.5 µg/mL (≈ 1.51 µM)	0.008 µg/mL (≈ 0.0241 µM)	0.015 µg/mL (≈ 0.0453 µM)	0.008 µg/mL (≈ 0.0241 µM)	0.5 µg/mL (≈ 1.51 µM)	32 µg/mL (≈ 96.6 µM)	> 64 µg/mL	> 64 µg/mL	0.25 µg/mL (≈ 0.754 µM)	0.5 µg/mL (≈ 1.51 µM)	0.5 µg/mL (≈ 1.51 µM)	2 µg/mL (≈ 6.04 µM)	> 64 µg/mL	16 µg/mL (≈ 48.3 µM)	> 64 µg/mL	0.5 µg/mL (≈ 1.51 µM)	64 µg/mL (≈ 193 µM)	32 µg/mL (≈ 96.6 µM)	0.5 µg/mL (≈ 1.51 µM)	0.5 µg/mL (≈ 1.51 µM)	O=C(O)c1cn(C2CC2)c2cc(N3CCNCC3)c(F)cc2c1=O [Ciprofloxacin]	
> 2 µg/mL	> 2 µg/mL	> 2 µg/mL	> 2 µg/mL	0.004 µg/mL (≈ 0.0107 µM)	0.004 µg/mL (≈ 0.0107 µM)	0.03 µg/mL (≈ 0.0799 µM)	0.004 µg/mL (≈ 0.0107 µM)	0.015 µg/mL (≈ 0.04 µM)	0.004 µg/mL (≈ 0.0107 µM)	0.015 µg/mL (≈ 0.04 µM)	0.004 µg/mL (≈ 0.0107 µM)	0.004 µg/mL (≈ 0.0107 µM)	0.004 µg/mL (≈ 0.0107 µM)	0.03 µg/mL (≈ 0.0799 µM)	> 2 µg/mL	> 2 µg/mL	> 2 µg/mL	>2 µg/mL	> 2 µg/mL	Cc1c(CN(C)C(=O)/C=C/c2cnc3c(c2)CCC(=O)N3)oc2ccccc12 [Compound Z, (E)-N-methyl-N-((3-methylbenzofuran-2-yl)methyl)-3-(7-oxo-5,6,7,8-tetrahydro-1,8-naphthyridin-3-yl)acrylamide]	
																				Cc1c(CN(C)C(=O)/C=C/c2cnc3c(c2)CCC(=O)N3)oc2ccccc12 [Compound IV, (E)-N-methyl-N-((3-methylbenzofuran-2-yl)methyl)-3-(7-oxo-5,6,7,8-tetrahydro-1,8-naphthyridin-3-yl)acrylamide, reference compound]	solubility ([1]; water, 25 °C, water, water, 25° C., mg free acid equivalent/mL, read-out: Solubility in Water): < 1 µg/mL
																				Cc1c(CN(C)C(=O)/C=C/c2cnc3c(c2)CCC(=O)N3COP2(=O)[O][Mg][O]2)oc2ccccc12 [Compound 12, (E)-6-[(N-methyl-((3-methylbenzofuran-2-yl)methyl)amino)-3-oxoprop-1-en-1-yl)-2-oxo-3,4-dihydro-1,8-naphthyridin-1 (2H)-yl]methylphosphate magnesium salt]	solubility ([1]; water, 25° C., mg free acid equivalent/mL, read-out: Solubility in Water): < 1000 µg/mL
1 µg/mL (≈ 2.96 µM)	64 µg/mL (≈ 190 µM)	> 64 µg/mL	64 µg/mL (≈ 190 µM)	4 µg/mL (≈ 11.9 µM)	2 µg/mL (≈ 5.93 µM)	2 µg/mL (≈ 5.93 µM)	2 µg/mL (≈ 5.93 µM)	2 µg/mL (≈ 5.93 µM)	2 µg/mL (≈ 5.93 µM)	2 µg/mL (≈ 5.93 µM)	4 µg/mL (≈ 11.9 µM)	2 µg/mL (≈ 5.93 µM)	2 µg/mL (≈ 5.93 µM)	2 µg/mL (≈ 5.93 µM)	1 µg/mL (≈ 2.96 µM)	1 µg/mL (≈ 2.96 µM)	1 µg/mL (≈ 2.96 µM)	1 µg/mL (≈ 2.96 µM)	1 µg/mL (≈ 2.96 µM)	CC(=O)NC[C@H]1CN(c2ccc(N3CCOCC3)c(F)c2)C(=O)O1 [Linezolid]	
																				Cc1c(CN(C)C(=O)/C=C/c2cnc3c(c2)CCC(=O)N3COP(=O)([O-])[O-])oc2ccccc12.[Na+].[Na+] [Compound 9]	Control % Area (Table C) ([2]; control sample at ambient lab conditions protected from light): 96.4 % Area; Photo-stability % Area ([2]; exposed to 60% of ICH minimum): 55.9 % Area; Solid-state stability % Area ([3]; 30° C./65% RH): 96.3 % Area; Solid-state stability % Area ([3]; 40° C./75% RH): 84.4 % Area; Solid-state stability % Area ([3]; 50° C./ambient humidity): 86.8 % Area; Solid-state stability % Area ([3]; 60° C./ambient humidity): 85.9 % Area; Solid-state stability % Area ([3]; Control (ambient lab conditions protected from light)): 96.4 % Area; chemical stability ([3]; over 1 month at 30° C./65% RH, closed vials, light protected): chemically stable; solubility ([1]; aqueous buffer, pH 6.6, aqueous buffer, originally amorphous, crystallized within 7 days in aqueous buffer, pH 6.6-7.1, read-out: solubility after crystallization in aqueous buffer): < 5000 µg/mL; Comments (behaviour in solubility experiment) ([1]; water, 25° C.): Forms gels; Comments (behaviour in solubility experiment) ([1]; water, 25° C., listed as bis-sodium): formed unwieldy gels; change in XRPD [4]: no change
